Laboratory results reported in US12202835B2, “Substituted aromatic ring-linked dioxinoquinazolines and dioxinoquinolines as kinase inhibitors” (BEIJING SCITECH-MQ PHARMACEUTICALS LIMITED, priority 2018, dated 2025).

Experiments:
[1] = target: TRKA kinase (Homo sapiens (Human), UniProt P04629); assay: Assay of small molecular compounds for inhibiting the activity of TRKA kinase (LANCE TR-FRET); format: biochemical
Summary of the method: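 TRKA (supplied as 2 nM 2× solution) was pre-reacted with compounds for 5 min at room temperature before a 4× ULight-TK peptide/ATP mix (400 nM/40 μM) started the 60-min dark reaction at 1% DMSO. After stop and 60-min detection, TR-FRET was read.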

[2] = system: EBC1 cells; assay: Assay for inhibiting the proliferation of EBC1 cells (CCK-8); format: cell-based; conditions: Homo sapiens, EBC-1
Summary of the method: (§1)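 Cells seeded in 96-well plates overnight, then exposed 72 h to 9 three-fold dilutions of compound (0.25% DMSO final). Viability by CCK-8 (1-2 h at 37° C., OD 450 nm), survival normalized to untreated and cell-free blanks; IC50 by curve fitting.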

[3] = system: Ba/F3-AXL cells; assay: Assay for inhibiting the proliferation of Ba/F3-AXL cells (CCK-8); format: cell-based; conditions: 72 hours of incubation, medium with 100 ng/mL hGas6, CCK-8
Experimental: The values were then imported into Graphpad Prism 5 software for curve fitting, and IC50 was calculated.

[4] = target: c-MET kinase (Homo sapiens (Human), UniProt P08581); assay: Assay of small molecular compounds for inhibiting the activity of c-MET kinase (LANCE TR-FRET); format: biochemical; conditions: read-out: CMET IC50
Summary of the method: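 Eleven final concentrations from 2500 nM down to 0.042 nM, in 4% DMSO, were tested against human c-MET (2× stock 2 nM), with compound and enzyme premixed for 5 min. The phosphorylation reaction used 4× stock of 400 nM ULight-JAK-1 peptide and 40 μM ATP for 60 min at room temperature, then stop and detection steps. TR-FRET percent inhibition against positive and negative controls gave the IC50.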

[5] = system: MHCC97H cells; assay: Assay for inhibiting the proliferation of MHCC97H cells (CCK-8); format: cell-based; conditions: Homo sapiens
Summary of the method: as §1

Chain of c-MET kinase (P08581 25-1390): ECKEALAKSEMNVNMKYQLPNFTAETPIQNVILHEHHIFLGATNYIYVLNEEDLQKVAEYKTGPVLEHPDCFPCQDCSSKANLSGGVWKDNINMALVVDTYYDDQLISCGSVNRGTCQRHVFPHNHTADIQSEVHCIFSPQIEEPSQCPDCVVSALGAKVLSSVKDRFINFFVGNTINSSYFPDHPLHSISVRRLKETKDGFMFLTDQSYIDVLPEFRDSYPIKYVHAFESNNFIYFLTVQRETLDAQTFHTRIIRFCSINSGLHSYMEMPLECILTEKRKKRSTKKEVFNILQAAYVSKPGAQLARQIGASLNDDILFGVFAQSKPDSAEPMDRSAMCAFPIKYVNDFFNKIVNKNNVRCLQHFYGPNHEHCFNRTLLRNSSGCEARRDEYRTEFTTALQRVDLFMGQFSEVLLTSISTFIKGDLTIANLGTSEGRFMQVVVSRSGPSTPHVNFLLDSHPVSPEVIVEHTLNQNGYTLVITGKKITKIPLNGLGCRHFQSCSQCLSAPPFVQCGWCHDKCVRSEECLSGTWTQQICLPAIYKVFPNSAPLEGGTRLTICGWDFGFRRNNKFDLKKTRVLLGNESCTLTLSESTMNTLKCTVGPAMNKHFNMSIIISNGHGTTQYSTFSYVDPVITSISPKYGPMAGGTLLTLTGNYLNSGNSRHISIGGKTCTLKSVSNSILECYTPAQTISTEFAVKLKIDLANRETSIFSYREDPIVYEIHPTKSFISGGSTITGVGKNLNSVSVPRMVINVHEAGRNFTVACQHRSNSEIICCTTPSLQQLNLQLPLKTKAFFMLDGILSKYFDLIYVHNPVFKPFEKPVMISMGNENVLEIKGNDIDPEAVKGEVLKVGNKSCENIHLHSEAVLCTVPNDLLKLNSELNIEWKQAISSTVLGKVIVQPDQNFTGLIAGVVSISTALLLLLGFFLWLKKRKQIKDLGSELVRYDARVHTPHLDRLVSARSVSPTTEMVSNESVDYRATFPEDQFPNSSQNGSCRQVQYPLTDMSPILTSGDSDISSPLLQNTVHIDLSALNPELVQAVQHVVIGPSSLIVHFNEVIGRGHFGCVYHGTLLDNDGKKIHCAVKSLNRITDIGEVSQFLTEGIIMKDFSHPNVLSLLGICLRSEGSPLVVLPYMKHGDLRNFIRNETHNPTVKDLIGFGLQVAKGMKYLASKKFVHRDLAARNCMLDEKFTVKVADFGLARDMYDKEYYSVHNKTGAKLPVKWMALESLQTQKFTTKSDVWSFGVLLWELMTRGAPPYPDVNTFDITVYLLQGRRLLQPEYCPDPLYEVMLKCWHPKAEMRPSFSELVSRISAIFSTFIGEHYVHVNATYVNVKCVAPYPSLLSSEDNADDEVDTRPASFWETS
Chain of TRKA kinase (P04629 33-796): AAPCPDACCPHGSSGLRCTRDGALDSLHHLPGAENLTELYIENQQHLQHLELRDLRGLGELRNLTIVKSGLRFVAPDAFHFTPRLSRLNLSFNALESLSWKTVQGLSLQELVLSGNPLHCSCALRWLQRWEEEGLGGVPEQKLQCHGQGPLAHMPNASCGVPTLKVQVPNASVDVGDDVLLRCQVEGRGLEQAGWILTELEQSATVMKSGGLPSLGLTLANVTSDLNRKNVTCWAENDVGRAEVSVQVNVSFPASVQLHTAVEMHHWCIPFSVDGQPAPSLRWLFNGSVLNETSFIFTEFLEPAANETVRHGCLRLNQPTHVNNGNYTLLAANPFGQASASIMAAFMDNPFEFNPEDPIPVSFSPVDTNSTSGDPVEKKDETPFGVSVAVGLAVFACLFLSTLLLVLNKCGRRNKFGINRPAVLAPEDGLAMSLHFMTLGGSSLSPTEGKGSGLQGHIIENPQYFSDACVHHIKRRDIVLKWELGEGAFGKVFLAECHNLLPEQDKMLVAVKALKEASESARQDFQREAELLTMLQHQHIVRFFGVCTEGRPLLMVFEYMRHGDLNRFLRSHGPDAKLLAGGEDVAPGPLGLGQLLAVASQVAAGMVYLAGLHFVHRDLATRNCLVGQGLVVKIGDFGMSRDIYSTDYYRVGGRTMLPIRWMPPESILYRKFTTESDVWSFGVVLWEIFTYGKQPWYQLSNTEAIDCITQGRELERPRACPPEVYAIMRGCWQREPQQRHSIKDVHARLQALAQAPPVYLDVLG

| Compound | IC50 [1] [nM] | IC50 [2] [nM] | IC50 [3] [nM] | IC50 [4] [nM] | IC50 [5] [nM] |
| --- | --- | --- | --- | --- | --- |
| CCOc1ccn(-c2ccc(F)cc2)c(=O)c1C(=O)Nc1ccc(Oc2ccnc3cc(OCCO)c4c(c23)OCCO4)c(F)c1 [Example 53, N-(4-((5-(2-hydroxyethoxy)-2,3-dihydro-[1,4]dioxino[2,3-f]quinolin-10-yl)oxy)-3-fluorophenyl)-4-ethoxy-1-(4-fluorophenyl)-2-oxo-1,2-dihydropyridine-3-carboxamide] | < 50 | ≤ 50 | < 50 | ≤ 50 | ≤ 50 |
| CCOc1ccn(-c2ccc(F)cc2)c(=O)c1C(=O)Nc1ccc(Oc2ccnc3cc(OCCCO)c4c(c23)OCCO4)c(F)c1 [Example 54, N-(4-((5-(3-hydroxypropoxy)-2,3-dihydro-[1,4]dioxino[2,3-f]quinolin-10-yl)oxy)-3-fluorophenyl)-4-ethoxy-1-(4-fluorophenyl)-2-oxo-1,2-dihydropyridine-3-carboxamide] | < 50 | ≤ 50 | < 50 | ≤ 50 | ≤ 50 |
| CCOc1ccn(-c2ccc(F)cc2)c(=O)c1C(=O)Nc1ccc(Oc2ccnc3cc(OCCCOC)c4c(c23)OCCO4)c(F)c1 [Example 55, N-(4-((5-(3-methoxypropoxy)-2,3-dihydro-[1,4]dioxino[2,3-f]quinolin-10-yl)oxy)-3-fluorophenyl)-4-ethoxy-1-(4-fluorophenyl)-2-oxo-1,2-dihydropyridine-3-carboxamide] | < 50 | ≤ 50 | < 50 | ≤ 50 | ≤ 50 |
| CCOc1ccn(-c2ccc(F)cc2)c(=O)c1C(=O)Nc1ccc(Oc2ccnc3cc(OCC#N)c4c(c23)OCCO4)c(F)c1 [Example 56, N-(4-((5-(cyanomethoxy)-2,3-dihydro-[1,4]dioxino[2,3-f]quinolin-10-yl)oxy)-3-fluorophenyl)-4-ethoxy-1-(4-fluorophenyl)-2-oxo-1,2-dihydropyridine-3-carboxamide] | < 50 | ≤ 50 | < 50 | ≤ 50 | ≤ 50 |
| CCOc1ccn(-c2ccc(F)cc2)c(=O)c1C(=O)Nc1ccc(Oc2ccnc3cc(OCCCC#N)c4c(c23)OCCO4)c(F)c1 [Example 57, N-(4-((5-(3-cyanopropoxy)-2,3-dihydro-[1,4]dioxino[2,3-f]quinolin-10-yl)oxy)-3-fluorophenyl)-4-ethoxy-1-(4-fluorophenyl)-2-oxo-1,2-dihydropyridine-3-carboxamide] | < 50 | ≤ 50 | < 50 | ≤ 50 | ≤ 50 |
| CCOc1cc2nccc(Oc3ccc(NC(=O)c4c(OCC)ccn(-c5ccc(F)cc5)c4=O)cc3F)c2c2c1OCCO2 [Example 62, N-(4-((5-ethoxy-2,3-dihydro-[1,4]dioxino[2,3-f]quinolin-10-yl)oxy)-3-fluorophenyl)-4-ethoxy-1-(4-fluorophenyl)-2-oxo-1,2-dihydropyridine-3-carboxamide] | < 50 | ≤ 50 | < 50 | ≤ 50 | ≤ 50 |
| CCOc1ccn(-c2ccc(F)cc2)c(=O)c1C(=O)Nc1ccc(Oc2ccnc3cc(OC(C)C)c4c(c23)OCCO4)c(F)c1 [Example 63, N-(4-((5-isopropoxy-2,3-dihydro-[1,4]dioxino[2,3-f]quinolin-10-yl)oxy)-3-fluorophenyl)-4-ethoxy-1-(4-fluorophenyl)-2-oxo-1,2-dihydropyridine-3-carboxamide] | 50 to 500 | ≤ 50 | < 50 | ≤ 50 | 50 to 200 |
| CCOc1ccn(-c2ccc(F)cc2)c(=O)c1C(=O)Nc1ccc(Oc2ccnc3cc(OC4COC4)c4c(c23)OCCO4)c(F)c1 [Example 64, N-(4-((5-((oxetan-3-yl)oxy)-2,3-dihydro-[1,4]dioxino[2,3-f]quinolin-10-yl)oxy)-3-fluorophenyl)-4-ethoxy-1-(4-fluorophenyl)-2-oxo-1,2-dihydropyridine-3-carboxamide] | < 50 | 50 to 200 | < 50 | ≤ 50 | 50 to 200 |
| CCOc1ccn(-c2ccc(F)cc2)c(=O)c1C(=O)Nc1ccc(Oc2ccnc3cc(OC4CCOC4)c4c(c23)OCCO4)c(F)c1 (stereo not shown) [Example 65, N-(4-((5-((tetrahydrofuran-3-yl)oxy)-2,3-dihydro-[1,4]dioxino[2,3-f]quinolin-10-yl)oxy)-3-fluorophenyl)-4-ethoxy-1-(4-fluorophenyl)-2-oxo-1,2-dihydropyridine-3-carboxamide] | < 50 | ≤ 50 | < 50 | ≤ 50 | ≤ 50 |
| CCOc1ccn(-c2ccc(F)cc2)c(=O)c1C(=O)Nc1ccc(Oc2ccnc3cc(OC4CCOCC4)c4c(c23)OCCO4)c(F)c1 [Example 66, N-(4-((5-((tetrahydropyran-4-yl)oxy)-2,3-dihydro-[1,4]dioxino[2,3-f]quinolin-10-yl)oxy)-3-fluorophenyl)-4-ethoxy-1-(4-fluorophenyl)-2-oxo-1,2-dihydropyridine-3-carboxamide] | < 50 | ≤ 50 | < 50 | ≤ 50 | ≤ 50 |
| CCOc1ccn(-c2ccc(F)cc2)c(=O)c1C(=O)Nc1ccc(Oc2ccnc3cc(OCCCN4CCC(C)(C)CC4)c4c(c23)OCCO4)c(F)c1 [Example 67, N-(4-((5-(3-(4,4-dimethylpiperidin-1-yl)propoxy)-2,3-dihydro-[1,4]dioxino[2,3-f]quinolin-10-yl)oxy)-3-fluorophenyl)-4-ethoxy-1-(4-fluorophenyl)-2-oxo-1,2-dihydropyridine-3-carboxamide] | < 50 | ≤ 50 | < 50 | ≤ 50 | ≤ 50 |
| CCOc1ccn(-c2ccc(F)cc2)c(=O)c1C(=O)Nc1ccc(Oc2ccnc3cc(OCCCN4CCC(C)(N)CC4)c4c(c23)OCCO4)c(F)c1 [Example 68, N-(4-((5-(3-(4-amino-4-methylpiperidin-1-yl)propoxy)-2,3-dihydro-[1,4]dioxino[2,3-f]quinolin-10-yl)oxy)-3-fluorophenyl)-4-ethoxy-1-(4-fluorophenyl)-2-oxo-1,2-dihydropyridine-3-carboxamide] | < 50 | ≤ 50 | < 50 | ≤ 50 | 200 to 1000 |
| CCOc1ccn(-c2ccc(F)cc2)c(=O)c1C(=O)Nc1ccc(Oc2ccnc3cc(OCCCN4CCC(C)(O)CC4)c4c(c23)OCCO4)c(F)c1 [Example 69, N-(4-((5-(3-(4-hydroxy-4-methylpiperidin-1-yl)propoxy)-2,3-dihydro-[1,4]dioxino[2,3-f]quinolin-10-yl)oxy)-3-fluorophenyl)-4-ethoxy-1-(4-fluorophenyl)-2-oxo-1,2-dihydropyridine-3-carboxamide] | < 50 | ≤ 50 | < 50 | ≤ 50 | 50 to 200 |
| CCOc1ccn(-c2ccc(F)cc2)c(=O)c1C(=O)Nc1ccc(Oc2ccnc3cc(OCCCN(C)CCOC)c4c(c23)OCCO4)c(F)c1 [Example 70, N-(4-((5-(3-((2-methoxyethyl)(methyl)amino)propoxy)-2,3-dihydro-[1,4]dioxino[2,3-f]quinolin-10-yl)oxy)-3-fluorophenyl)-4-ethoxy-1-(4-fluorophenyl)-2-oxo-1,2-dihydropyridine-3-carboxamide] | < 50 | ≤ 50 | < 50 | ≤ 50 | ≤ 50 |
| CCOc1ccn(-c2ccc(F)cc2)c(=O)c1C(=O)Nc1ccc(Oc2ccnc3cc(OCCCN(C)C4CCC4)c4c(c23)OCCO4)c(F)c1 [Example 71, N-(4-((5-(3-(cyclobutyl(methyl)amino)propoxy)-2,3-dihydro-[1,4]dioxino[2,3-f]quinolin-10-yl)oxy)-3-fluorophenyl)-4-ethoxy-1-(4-fluorophenyl)-2-oxo-1,2-dihydropyridine-3-carboxamide] | < 50 | ≤ 50 | < 50 | ≤ 50 | ≤ 50 |
| CCOc1ccn(-c2ccc(F)cc2)c(=O)c1C(=O)Nc1ccc(Oc2ccnc3cc(OCCCN4CCOCC4)c4c(c23)OCCO4)c(Cl)c1 [Example 72, N-(4-((5-(3-morpholinopropoxy)-2,3-dihydro-[1,4]dioxino[2,3-f]quinolin-10-yl)oxy)-3-chlorophenyl)-4-ethoxy-1-(4-fluorophenyl)-2-oxo-1,2-dihydropyridine-3-carboxamide] | < 50 | ≤ 50 | < 50 | ≤ 50 | ≤ 50 |
| CCOc1ccn(-c2ccc(F)cc2)c(=O)c1C(=O)Nc1ccc(Oc2ccnc3cc(OCCCN4CCOCC4)c4c(c23)OCCO4)cc1Cl [Example 73, N-(2-chloro-4-((5-(3-morpholinopropoxy)-2,3-dihydro-[1,4]dioxino[2,3-f]quinolin-10-yl)oxy)phenyl)-4-ethoxy-1-(4-fluorophenyl)-2-oxo-1,2-dihydropyridine-3-carboxamide] | < 50 | ≤ 50 | < 50 | ≤ 50 | ≤ 50 |
